According to patent US20200384188A1, “SYSTEMS, DEVICES, FORMULATIONS AND METHODS FOR CONTROLLED DRUG DELIVERY” (priority 2017, published 2020):
Several values for one entry are separate records, joined by “and”; a condition that tells them apart may be missing. Equal entries are not always repeated.

Columns and labels:
[1] = test system: rats (Group 1 Sprague-Dawley, Group 4 Han Wister); assay: Randall-Selitto test (Brewers Yeast-inflamed hind paw, analgesy meter); format: in vivo, rat; conditions: Group 4
Excerpt: The Randall Selitto test is a tool to assess the response thresholds to mechanical pressure stimulation following induction of a hyperalgesic state by injection of an inflammatory agent and is considered a measure of mechanical hyperalgesia (Randall and Selitto, 1957). This involves application of an increasing force to the surface of the paw until withdrawal or vocalization occurs. The test can produce results similar to decreases on pressure pain thresholds observed in clinical conditions, such as fibromyalgia, myofascial pain, or osteoarthritis (Arendt-Nielsen et al., 2010; Bennett, 2007; Finan et al., 2013; Hsu et al., 2010). Centrally and peripherally acting effects can be detected using this model, for example, opioids increase the mechanical threshold to the normal and inflamed paw, whereas nonsteroidal anti-inflammatory drugs are only effective in the inflamed paw.
(§1) Eighteen male Sprague-Dawley rats were obtained from Charles River, Margate, United Kingdom, and were used for dosing. Animals weighed between 319 and 419 g on the day of dosing. Eight male Han Wister rats were obtained from Charles River, Margate, United Kingdom and used for Group 4. Animals weighed between 381 and 504 g on the day of dosing. The animals were assessed according to Table 1.
(§2) Animals were dosed subcutaneously via a motorized insulin pump.
The threshold of a pain response to increasing pressure was measured using an analgesy meter (Ugo Basile, Italy). The animal was gently held by a competent operator, and the hind paw of the animal was positioned over a convex surface (a cone-shaped pusher). A gradually increasing pressure (g) was applied to the upper surface of the paw. The force was continuously monitored by a pointer moving along a linear scale and was stopped by depression of a foot pedal when the animal struggled. A cut-off value of 300 g was adopted (based on available literature and experience).
Pre-dose Phase: The pressure pain threshold of each animal was tested on two occasions (once in the morning and once in the afternoon). This allowed animals to acclimate to the procedure.
(§3) Day of Dosing: On the day of dosing, each animal was administered a 0.1 mL 20% suspension of Brewers Yeast subcutaneously into the sub-plantar of the right hind paw at approximately 180 minutes prior to ketamine administration. Immediately prior to ketamine administration (Group 4), 15 and 30 minutes and 1, 2, and 4 hours post administration of ketamine, each animal was assessed for a response to increasing pressure on both hind paws (Group 1 used right hind paw, Group 4 used both hind paws), using the analgesy meter. Signs of anesthesia were recorded.

male Sprague-Dawley rats [2] = conditions: rat, in vivo
rats [3] = assay: Signs of anesthesia recorded during the rat pain tests; format: in vivo; conditions: 50 mg/kg sc via insulin pump
Description: Signs of anesthesia were recorded.
as §3

rats [4] = conditions: 50 mg/kg; cited from earlier work
[5] = Minipig pharmacokinetics study (BB-1802), single subcutaneous infusion via insulin pump, plasma LC-MS/MS; conditions: for half-life / Tmax: Gottingen, minipig, plasma, sc; for Tmax: mean Tmax
Description: The purpose of this study was to determine the pharmacokinetics of ketamine after a single subcutaneous infusion dose to minipigs.
Dose Administration: In each phase, animals received a single subcutaneous infusion (up to 18 hours) via insulin pump (Medtronic MiniMed Paradigm® Insulin Pump). The infusion pump was programmed in accordance with a Study Specific Procedure, and the infusion was continuously monitored for the duration of the dose. […] The pump was inspected, re-secured to the animal, and the dose continued.
For each phase, blood (approximately 2 mL) was collected via jugular vein catheter into tubes containing K3EDTA from each animal predose and at approximately 0.083, 0.25, 0.5, 1, 2, 4, 8, 9 (Phases 1 through 3 only), 10 (Phases lthrough 3 only), 12, 15 (Phases 4 and 5 only), 18 (Phases 4 and 5 only), 20 (Phases 4 and 5 only), 22 (Phases 4 and 5 only), and 24 hours postdose, with the following exceptions in Phase 3 for Animal 50004 (Group 1 male). […] Times were based on the start of the infusion.
Plasma samples were analyzed for concentrations of ketamine using an established liquid chromatography/mass spectrometry (LC-MS/MS) method.
Noncompartmental analysis (1) was applied to the individual plasma ketamine concentration data for males and females. The following parameters were estimated whenever possible:
Nominal doses and sampling times were used. […] Embedded zeros were excluded from pharmacokinetic analysis.

Gottingen Minipigs = assay: Minipig animal observations and necropsy; format: in vivo, Gottingen Minipig; conditions: Animals S0001 and S0004, Group 1 males
Excerpt: All animals appeared healthy prior to dosing and throughout the duration of the study, with the following observations noted.

male Sprague-Dawley rats [6] = assay: Writhing test (acetic acid-induced abdominal spasm); format: in vivo, rat
Description: In the abdominal spasm (acetic acid-induced writhing) test, acetic acid is injected into the peritoneal cavity where it directly activates nociceptors and results in an abdominal writhing response. This writhing response is characterized by contraction of abdominal muscles followed by an extension of the hind limbs (Collier et al., 1968). This pain-behavior is considered reflexive and evidence of visceral pain associated with visceral chemoreceptors (Hammond, 1989). […] It is widely accepted that this model can be used as a screening method to determine the effects of drugs on inflammatory induced nociception (Vogel et al., 1997; Chiba et al., 2008). Although it can be used as a screening tool, it is unclear as to which clinical conditions the use of a chemical irritant represents (Gregory et al., 2013).
as §1, §2
At 1 hour post administration of ketamine, each animal was administered a 1 mL intraperitoneal injection of 1% acetic acid. Animals were immediately placed into individual observation chambers, and the number of abdominal spasms elicited over the subsequent 25-minute period was recorded.
Comparisons were made to background data.

CNC1(c2ccccc2Cl)CCCCC1=O (stereo not drawn) [ketamine]
% change from baseline, force on inflamed (right) paw ([1]; 50 mg/kg sc, 4 h): 38.45% | % change from baseline, force on untreated (left) paw ([1]; 50 mg/kg sc, 4 h): 14.9% | Force (g) applied, Left paw, individual animals ([1]; 50 mg/kg sc, 4 h, 50 mg/kg): 130 g (2×) and 110 g (3×) and 220 g and 90 g and 180 g | Force (g) applied, Right Paw (inflamed), individual animals ([1]; 50 mg/kg sc, 4 h, 50 mg/kg): 60 g and 90 g and 170 g and 100 g (2×) and 80 g and 150 g and 70 g | Force (g) applied to the inflamed (right) paw, mean ([1]; 50 mg/kg sc, 4 h, n=8): 102.5 g | Force (g) applied to the untreated (left) paw, mean ([1]; 50 mg/kg sc, 4 h, n=8): 135.0 g | pressure required in the treated (right) paw at 15 minutes post-dose, in words ([1]; 15 minutes post-dose): slight decrease | pressure required to initiate a response in the treated (right) paw, in words ([1]; between 0.5 and 2 hours post-dose compared to pre-dose, time dependent): increase in pressure required to initiate a response | force applied to the untreated (left) paw, in words ([1]; throughout the data collection): remained comparable to pre-dose | Time (s) taken for response, individual animals (male Sprague-Dawley rats [2]): 4.2 s (2×) and 5.2 s (3×) and 5.9 s and 5.1 s and 7.7 s and 6.2 s (2×) and 4.4 s and 7.0 s and 7.5 s and 5.5 s and 6.4 s (2×) and 7.4 s (3×) and 6.5 s (2×) and 3.5 s and 5.8 s (3×) and 4.3 s and 4.9 s and 6.1 s and 5.7 s and 7.6 s | Time (s) taken for response, mean (male Sprague-Dawley rats [2]): 5.6 s and 5.9 s and 6.3 s | group mean reaction time (longest) (male Sprague-Dawley rats [2]): 6.3 s | group mean reaction time (shortest) (male Sprague-Dawley rats [2]): 5.6 s | latency of tail flick, in words (male Sprague-Dawley rats [2]): slight increase in latency of tail flick at all post-dose time points | magnitude of the increase in time taken for pain to be perceived (male Sprague-Dawley rats [2]): 1.1 s | maximum effect, increase in time to tail flick (male Sprague-Dawley rats [2]): 21.4% | Signs of anesthesia (rats [3]): reduced righting reflex, body tone, and ataxia up to 1 hour post-dose | relief of evoked pain 24 hours after administration (rats [4]): no relief of evoked pain | half-life ([5]; 8 mg/kg): 5.76 h | half-life ([5]; 12 mg/kg): 5 h | half-life ([5]; 18 mg/kg): 3.12 h | mean concentration values measurable through (post the start of infusion) ([5]; Phase 1): 12 h | mean Css ([5]; Phase 5: 18 mg/kg, 1 mg/kg/hr, 18-hour SC infusion): 700 ng/mL | steady-state, in words ([5]; Phases 1 through 4): did not appear to reach a steady-state | mean concentration values measurable through (post the start of infusion) ([5]; Phases 3 through 5): 24 h | time to detectible plasma ketamine levels after initiating subcutaneous infusion ([5]; all animals): ≤ 5 min | exposure to ketamine against dose level ([5]; dose level from 4 to 18 mg/kg): generally increased with the increase in dose level | Tmax ([5]; female, 18 mg/kg, Phases 4 and 5: 18 mg/kg, 1 mg/kg/hr, 18-hour SC infusion, female): 13.5 h | Tmax ([5]; male, 8 mg/kg, Phase 2: 8 mg/kg, 1 mg/kg/hr, 8-hour SC infusion, males): 4.5 h | Tmax ([5]; male, 12 mg/kg, Phase 3: 12 mg/kg, 1.5 mg/kg/hr, 8-hour SC infusion, males): 2.04 h | dose proportionality of the increases in mean Cmax and AUC0-24 ([5]; males, dose level from 4 to 8 mg/kg): less than dose proportional | dose proportionality of the increases in mean Cmax and AUC0-24 ([5]; males, dose level from 8 to 12 mg/kg): greater than dose proportional | relation of adverse effects (euthanized animals, necropsy) to the test article (Gottingen Minipigs): not test article related | Number of acetic acid-induced Abdominal Spasms, individual animals (male Sprague-Dawley rats [6]; 50 mg/kg sc, 1 hour after ketamine, animals R0201-R0206): 0 and 4 and 3 and 5 and 1 and 8 | reduction of elicited spasms from baseline values (male Sprague-Dawley rats [6]; ketamine infusion versus baseline of 29/25 min): 86% | number of elicited spasms, average (male Sprague-Dawley rats [6]; ketamine infusion, baseline 29/25 min): 4 /25 min
